pIC50: −log10 of the molar value.
Molecular target: T1, ROR gamma ligand-binding domain (LBD) (hRORg) (Homo sapiens, UniProt P51449)
T1 construct: expressed in transfected cells; host or cells: HG5LN (HeLa line with GAL4-responsive luciferase reporter)
T1 sequence (P51449 269-508 limits assumed): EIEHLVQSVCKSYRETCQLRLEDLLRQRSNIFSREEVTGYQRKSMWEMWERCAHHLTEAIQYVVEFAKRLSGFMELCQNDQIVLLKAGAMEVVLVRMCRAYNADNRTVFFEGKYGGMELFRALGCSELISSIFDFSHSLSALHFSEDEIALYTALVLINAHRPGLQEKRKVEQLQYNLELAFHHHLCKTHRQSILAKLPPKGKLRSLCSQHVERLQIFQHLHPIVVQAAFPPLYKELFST
Test: GAL4-RORγ transactivation (luciferase reporter, HG5LN HeLa line)
Format: cell-based
Conditions: HG5LN HeLa line with GAL4 DBD fused to ROR gamma LBD, 18 hours incubation
From the text: GAL4—RORγ Transactivation
The RORγ transactivation model was developed from the line HG5LN, which is a HeLa line that stably expresses a luciferase reporter gene controlled by a pentamer of the GAL4 recognition domain of yeast and of a β-globin promoter. The HG5LN line was stably transfected by the DNA-binding domain (DBD) of GAL4 fused to the ROR gamma ligand-binding domain (LBD). Molecules that inhibit the ROR gamma constitutive activity reduce the luciferase expression, thus leading to a reduction in the emitted luminescence.
The cells are seeded in 384-well plates (5000 cells in 45 μL/well of culture medium containing 10% fetal calf serum) and incubated for 4 hours at 37° C., 5% CO2. 5 μL of the test molecules (compounds described in the tables described above) are then added to each well and the plates are incubated for 18 hours at a temperature of 37° C. under 5% of CO2. 20 μL of luciferase substrate (Promega) are added to each well and the luminescence emitted is read by a microplate reader.
The luminescence units (“RLU”) are normalized by positive controls (“POS” containing a saturated concentration of N-(2,2,2-trifluoroethyl)-N-[4-[2,2,2-trifluoro-1-hydroxy-1-(trifluoromethyl)ethyl]phenyl])benzenesulfonamide and negative controls (“NEG” containing DMSO): % inhibition=((RLU-NEG)*100)/(POS-NEG). The IC50 values are calculated from a 4-parameter logistic model using the XLFit software (IDBS).

Row | pIC50 | Compound
1 | < 6.00 | CCc1ccc(N(CC(C)C)S(=O)(=O)c2ccc3c(c2)C(O)CCN3CC2CCS(=O)(=O)CC2)cc1 (centres unmarked) [Compound 17, 1-(1,1-dioxohexahydro-1λ^6-thiopyran-4-ylmethyl)-4-hydroxy-1,2,3,4-tetrahydroquinoline-6-sulfonic acid (4-ethylphenyl)isobutylamide]
2 | 6.00 to 7.00 | CCc1ccc(N(CC(C)C)S(=O)(=O)c2ccc3c(c2)C(O)CCN3CC2CCS(=O)(=O)C2)cc1 (centres unmarked) [Compound 22, 1-(1,1-dioxotetrahydro-1λ^6-thiophen-3-ylmethyl)-4-hydroxy-1,2,3,4-tetrahydroquinoline-6-sulfonic acid (4-ethylphenyl)isobutylamide]
3 | < 6.00 | CCc1ccc(N(CC(C)C)S(=O)(=O)c2ccc3c(c2)C(O)CCN3CC2CCNC(=O)C2)cc1 (centres unmarked) [Compound 25, 4-hydroxy-1-(2-oxopiperidin-4-ylmethyl)-1,2,3,4-tetrahydroquinoline-6-sulfonic acid (4-ethylphenyl)isobutylamide]
4 | 6.00 to 7.00 | CCc1ccc(N(CC(C)C)S(=O)(=O)c2ccc3c(c2)C(O)CCN3CC2CNC(=O)C2)cc1 (centres unmarked) [Compound 26, 4-hydroxy-1-(5-oxopyrrolidin-3-ylmethyl)-1,2,3,4-tetrahydroquinoline-6-sulfonic acid (4-ethylphenyl)isobutylamide]
5 | 6.00 to 7.00 | CCc1ccc(N(CC(C)C)S(=O)(=O)c2ccc3c(c2)C(O)CCN3C2CCS(=O)(=O)CC2)cc1 (centres unmarked) [Compound 27, 1-(1,1-dioxohexahydro-1λ^6-thiopyran-4-yl)-4-hydroxy-1,2,3,4-tetrahydroquinoline-6-sulfonic acid (4-ethylphenyl)isobutylamide]
6 | 6.00 to 7.00 | CCc1ccc(N(CC(C)C)S(=O)(=O)c2ccc3c(c2)C(O)CCN3Cc2cnoc2C)cc1 (centres unmarked) [Compound 30, 4-hydroxy-1-(5-methylisoxazol-4-ylmethyl)-1,2,3,4-tetrahydroquinoline-6-sulfonic acid (4-ethylphenyl)isobutylamide]
7 | 6.00 to 7.00 | CCc1ccc(N(CC(C)C)S(=O)(=O)c2ccc3c(c2)C(O)CCN3Cc2c(C)noc2C)cc1 (centres unmarked) [Compound 31, 1-(3,5-dimethylisoxazol-4-ylmethyl)-4-hydroxy-1,2,3,4-tetrahydroquinoline-6-sulfonic acid (4-ethylphenyl)isobutylamide]
8 | < 6.00 | CCc1ccc(N(CC(C)C)S(=O)(=O)c2ccc3c(c2)C(O)CCN3[C@H](C)C2CCOCC2)cc1 (stereo partly drawn) [Compound 39, 4-hydroxy-1-[(R)-1-(tetrahydropyran-4-yl)ethyl]-1,2,3,4-tetrahydroquinoline-6-sulfonic acid (4-ethylphenyl)isobutylamide]
9 | 6.00 to 7.00 | CCc1ccc(N(CC(C)C)S(=O)(=O)c2ccc3c(c2)C(O)CCN3CC2CC3(COC3)C2)cc1 (centres unmarked) [Compound 44, 4-hydroxy-1-(2-oxaspiro[3.3]hept-6-ylmethyl)-1,2,3,4-tetrahydroquinoline-6-sulfonic acid (4-ethylphenyl)isobutylamide]

Further lines, the compound ahead of its results:

Row | Compound | pIC50
10 | CCc1ccc(N(CC(C)C)S(=O)(=O)c2ccc3c(c2)C(O)CCN3CC2(O)CCOCC2)cc1 (centres unmarked) [Compound 16, 4-hydroxy-1-(4-hydroxytetrahydropyran-4-ylmethyl)-1,2,3,4-tetrahydroquinoline-6-sulfonic acid (4-ethylphenyl)isobutylamide] | < 6.00
11 | CCc1ccc(N(CC(C)C)S(=O)(=O)c2ccc3c(c2)C(O)CCN3CC2COC2)cc1 (centres unmarked) [Compound 18, 4-hydroxy-1-oxetan-3-ylmethyl-1,2,3,4-tetrahydroquinoline-6-sulfonic acid (4-ethylphenyl)isobutylamide] | 6.00 to 7.00
12 | CCc1ccc(N(CC(C)C)S(=O)(=O)c2ccc3c(c2)C(O)CCN3Cc2ccncn2)cc1 (centres unmarked) [Compound 21, 4-hydroxy-1-pyrimidin-4-ylmethyl-1,2,3,4-tetrahydroquinoline-6-sulfonic acid (4-ethylphenyl)isobutylamide] | > 7.00
13 | CCc1ccc(N(CC(C)C)S(=O)(=O)c2ccc3c(c2)C(O)CCN3CC2CNC(=O)O2)cc1 (centres unmarked) [Compound 23, 4-hydroxy-1-(2-oxooxazolidin-5-ylmethyl)-1,2,3,4-tetrahydroquinoline-6-sulfonic acid (4-ethylphenyl)isobutylamide] | 6.00 to 7.00
14 | CCc1ccc(N(CC(C)C)S(=O)(=O)c2ccc3c(c2)C(O)CCN3CC2CCC(=O)NC2)cc1 (centres unmarked) [Compound 24, 4-hydroxy-1-(6-oxopiperidin-3-ylmethyl)-1,2,3,4-tetrahydroquinoline-6-sulfonic acid (4-ethylphenyl)isobutylamide] | 6.00 to 7.00
15 | CCc1ccc(N(CC(C)C)S(=O)(=O)c2ccc3c(c2)C(O)CCN3C2CCS(=O)(=O)C2)cc1 (centres unmarked) [Compound 28, 1-(1,1-dioxotetrahydro-1λ^6-thiophen-3-yl)-4-hydroxy-1,2,3,4-tetrahydroquinoline-6-sulfonic acid (4-ethylphenyl)isobutylamide] | 6.00 to 7.00
16 | CCc1ccc(N(CC(C)C)S(=O)(=O)c2ccc3c(c2)C(O)CCN3Cc2nonc2C)cc1 (centres unmarked) [Compound 32, 4-hydroxy-1-(4-methylfurazan-3-ylmethyl)-1,2,3,4-tetrahydroquinoline-6-sulfonic acid (4-ethylphenyl)isobutylamide] | 6.00 to 7.00
17 | CCc1ccc(N(CC(C)C)S(=O)(=O)c2ccc3c(c2)C(O)CCN3CC2CCC(F)(F)CC2)cc1 (centres unmarked) [Compound 33, 1-(4,4-difluorocyclohexylmethyl)-4-hydroxy-1,2,3,4-tetrahydroquinoline-6-sulfonic acid (4-ethylphenyl)isobutylamide] | < 6.00
18 | CCc1ccc(N(CC(C)C)S(=O)(=O)c2ccc3c(c2)C(O)CCN3CC2CCC(F)(F)C2)cc1 (centres unmarked) [Compound 34, 1-(3,3-difluorocyclopentylmethyl)-4-hydroxy-1,2,3,4-tetrahydroquinoline-6-sulfonic acid (4-ethylphenyl)isobutylamide] | 6.00 to 7.00
19 | CCc1ccc(N(CC(C)C)S(=O)(=O)c2ccc3c(c2)C(O)CCN3CC2CCC(C#N)CC2)cc1 (centres unmarked) [Compound 35, 1-(4-cyanocyclohexylmethyl)-4-hydroxy-1,2,3,4-tetrahydroquinoline-6-sulfonic acid (4-ethylphenyl)isobutylamide] | < 6.00
20 | CCc1ccc(N(CC(C)C)S(=O)(=O)c2ccc3c(c2)C(O)CCN3OC2CCOCC2)cc1 (centres unmarked) [Compound 36, 4-hydroxy-1-(tetrahydropyran-4-yloxy)-1,2,3,4-tetrahydroquinoline-6-sulfonic acid (4-ethylphenyl)isobutylamide] | 6.00 to 7.00
21 | CCc1ccc(N(CC(C)C)S(=O)(=O)c2ccc3c(c2)C(O)CCN3[C@H](C)C2CCOCC2)cc1 (stereo partly drawn) [Compound 38, 4-hydroxy-1-[(R)-1-(tetrahydropyran-4-yl)ethyl]-1,2,3,4-tetrahydroquinoline-6-sulfonic acid (4-ethylphenyl)isobutylamide] | < 6.00
22 | CCc1ccc(N(CC(C)C)S(=O)(=O)c2ccc3c(c2)C(O)CCN3[C@@H](C)C2CCOCC2)cc1 (stereo partly drawn) [Compound 40, 4-hydroxy-1-[(S)-1-(tetrahydropyran-4-yl)ethyl]-1,2,3,4-tetrahydroquinoline-6-sulfonic acid (4-ethylphenyl)isobutylamide] | 6.00 to 7.00
23 | CCc1ccc(N(CC(C)C)S(=O)(=O)c2ccc3c(c2)C(O)CCN3[C@@H](C)C2CCOCC2)cc1 (stereo partly drawn) [Compound 41, 4-hydroxy-1-[(S)-1-(tetrahydropyran-4-yl)ethyl]-1,2,3,4-tetrahydroquinoline-6-sulfonic acid (4-ethylphenyl)isobutylamide] | 6.00 to 7.00

Source: patent US10550110B2, “Tetrahydroquinoline sulfonamide derivatives as inverse agonists of retinoid-related orphan receptor gamma (ROR gamma (t))” (GALDERMA RESEARCH & DEVELOPMENT, priority 2014, dated 2020)
